Laboratory results as given in article PMC4356362, “Interaction of the amyloid precursor protein-like protein 1 (APLP1) E2 domain with heparan sulfate involves two distinct binding modes” (Acta Crystallographica Section D: Biological Crystallography, 2015).

T1: APLP1 E2 (Homo sapiens, UniProt P51693)
T1 construct: E2 domain, residues 290-495, secreted from Pichia pastoris (pPICZalpha), N-glycosylated fraction removed; dimeric arrangement in crystal
T1 sequence (P51693 290-495): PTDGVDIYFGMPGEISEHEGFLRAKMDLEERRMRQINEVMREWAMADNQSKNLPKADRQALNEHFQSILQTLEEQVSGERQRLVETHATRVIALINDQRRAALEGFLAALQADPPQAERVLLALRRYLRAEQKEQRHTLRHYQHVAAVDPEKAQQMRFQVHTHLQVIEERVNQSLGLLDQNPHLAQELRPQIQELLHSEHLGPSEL

B1: APLP1 E2 domain (amyloid precursor protein-like protein 1, E2 domain) (domain or fragment, human, UniProt P51693 290-495, looked up)
chain: T1 sequence (P51693 290-495)
notes: E2 domain of human amyloid precursor protein-like protein 1 (APLP1), amino acids 290-495; Nonglycosylated fraction used; Two protomers in the asymmetric unit of both crystal forms; also called E2 domain of APLP1; apo APLP1 E2

Tests used:
APLP1 E2 [1] = target: T1, APLP1 E2; test: thermal denaturation (Thermofluor, SYPRO Orange); type: binding; conditions: 10 µM protein, 50 µM oligosaccharide, phosphate pH 5.7, 100 mM NaCl; reference Tm without ligand 43.6 ± 0.2 °C
APLP1 E2 [2] = target: T1, APLP1 E2; test: X-ray co-crystal structure, […] Å; conditions: equimolar 0.5 mM; pH 6.1-6.3; two binding modes: chain a nonreducing end at dimer centre, chain b on one protomer
[3] = target: the molecule itself; test: crystal structure; apo APLP1 E2, orthorhombic crystal form (P212121), 2.6 Å; crystals grown at 20°C in 0.1 M sodium citrate pH 5.6, 0.9 M (NH4)H2PO4, 25% glycerol; two molecules in the asymmetric unit

Molecule	Tm (APLP1 E2 [1])	X-ray co-crystal structure, 2.5 Å (APLP1 E2 [2])	binding result [3]
O=C(O)C1=C[C@H](O)[C@@H](OS(=O)(=O)O)[C@H](O[C@H]2[C@H](O)[C@@H](NS(=O)(=O)O)[C@@H](O[C@H]3[C@H](O)[C@@H](OS(=O)(=O)O)[C@H](O[C@H]4[C@H](O)[C@@H](NS(=O)(=O)O)C(O)O[C@@H]4COS(=O)(=O)O)O[C@H]3C(=O)O)O[C@@H]2COS(=O)(=O)O)O1 (stereo partly drawn) [dp4, heparin tetrasaccharide]	46.9 ± 0.3 °C		
O=C(O)C1=C[C@H](O)[C@@H](OS(=O)(=O)O)[C@H](O[C@H]2[C@H](O)[C@@H](NS(=O)(=O)O)[C@@H](O[C@H]3[C@H](O)[C@@H](OS(=O)(=O)O)[C@H](O[C@H]4[C@H](O)[C@@H](NS(=O)(=O)O)[C@@H](O[C@H]5[C@H](O)[C@@H](OS(=O)(=O)O)[C@H](O[C@H]6[C@H](O)[C@@H](NS(=O)(=O)O)[C@@H](O[C@H]7[C@H](O)[C@@H](OS(=O)(=O)O)[C@H](O[C@H]8[C@H](O)[C@@H](NS(=O)(=O)O)C(O)O[C@@H]8COS(=O)(=O)O)O[C@H]7C(=O)O)O[C@@H]6COS(=O)(=O)O)O[C@H]5C(=O)O)O[C@@H]4COS(=O)(=O)O)O[C@H]3C(=O)O)O[C@@H]2COS(=O)(=O)O)O1 (stereo partly drawn) [dp8, heparin octasaccharide]	53.5 ± 0.5 °C		
O=C(O)C1=C[C@H](O)[C@@H](OS(=O)(=O)O)[C@H](O[C@H]2[C@H](O)[C@@H](NS(=O)(=O)O)[C@@H](O[C@H]3[C@H](O)[C@@H](OS(=O)(=O)O)[C@H](O[C@H]4[C@H](O)[C@@H](NS(=O)(=O)O)[C@@H](O[C@H]5[C@H](O)[C@@H](OS(=O)(=O)O)[C@H](O[C@H]6[C@H](O)[C@@H](NS(=O)(=O)O)[C@@H](O[C@H]7[C@H](O)[C@@H](OS(=O)(=O)O)[C@H](O[C@H]8[C@H](O)[C@@H](NS(=O)(=O)O)[C@@H](O[C@H]9[C@H](O)[C@@H](OS(=O)(=O)O)[C@H](O[C@H]%10[C@H](O)[C@@H](NS(=O)(=O)O)[C@@H](O[C@H]%11[C@H](O)[C@@H](OS(=O)(=O)O)[C@H](O[C@H]%12[C@H](O)[C@@H](NS(=O)(=O)O)C(O)O[C@@H]%12COS(=O)(=O)O)O[C@H]%11C(=O)O)O[C@@H]%10COS(=O)(=O)O)O[C@H]9C(=O)O)O[C@@H]8COS(=O)(=O)O)O[C@H]7C(=O)O)O[C@@H]6COS(=O)(=O)O)O[C@H]5C(=O)O)O[C@@H]4COS(=O)(=O)O)O[C@H]3C(=O)O)O[C@@H]2COS(=O)(=O)O)O1 (stereo partly drawn) [dp12, heparin dodecasaccharide]	55.6 ± 0.5 °C	coordinates of APLP1 E2 in complex with heparin	
O=C(O)C1=C[C@H](O)[C@@H](OS(=O)(=O)O)[C@H](O[C@H]2[C@H](O)[C@@H](NS(=O)(=O)O)[C@@H](O[C@H]3[C@H](O)[C@@H](OS(=O)(=O)O)[C@H](O[C@H]4[C@H](O)[C@@H](NS(=O)(=O)O)[C@@H](O[C@H]5[C@H](O)[C@@H](OS(=O)(=O)O)[C@H](O[C@H]6[C@H](O)[C@@H](NS(=O)(=O)O)[C@@H](O[C@H]7[C@H](O)[C@@H](OS(=O)(=O)O)[C@H](O[C@H]8[C@H](O)[C@@H](NS(=O)(=O)O)[C@@H](O[C@H]9[C@H](O)[C@@H](OS(=O)(=O)O)[C@H](O[C@H]%10[C@H](O)[C@@H](NS(=O)(=O)O)[C@@H](O[C@H]%11[C@H](O)[C@@H](OS(=O)(=O)O)[C@H](O[C@H]%12[C@H](O)[C@@H](NS(=O)(=O)O)[C@@H](O[C@H]%13[C@H](O)[C@@H](OS(=O)(=O)O)[C@H](O[C@H]%14[C@H](O)[C@@H](NS(=O)(=O)O)[C@@H](O[C@H]%15[C@H](O)[C@@H](OS(=O)(=O)O)[C@H](O[C@H]%16[C@H](O)[C@@H](NS(=O)(=O)O)C(O)O[C@@H]%16COS(=O)(=O)O)O[C@H]%15C(=O)O)O[C@@H]%14COS(=O)(=O)O)O[C@H]%13C(=O)O)O[C@@H]%12COS(=O)(=O)O)O[C@H]%11C(=O)O)O[C@@H]%10COS(=O)(=O)O)O[C@H]9C(=O)O)O[C@@H]8COS(=O)(=O)O)O[C@H]7C(=O)O)O[C@@H]6COS(=O)(=O)O)O[C@H]5C(=O)O)O[C@@H]4COS(=O)(=O)O)O[C@H]3C(=O)O)O[C@@H]2COS(=O)(=O)O)O1 (stereo partly drawn) [dp16]	a slight stability increase of APLP1 was induced by chain lengths beyond eight sugar rings		
B1			binds
